Reference: US9828352B2, “Phenyl carbamates and their use as inhibitors of the fatty acid amide hydrolase (FAAH) enzyme and modulators of the D3 dopamine receptor (D3DR)” (FONDAZIONE ISTITUTO ITALIANO DI TECNOLOGIA, priority 2013, dated 2017)

Legend:
[1] = target: T1, rat FAAH (Rattus norvegicus, UniProt P97612); test: Rat Fatty Acid Amide Hydrolase (FAAH) assay, rat brain homogenate, [3H]-anandamide; format: biochemical; conditions: 3 separate experiments, each in duplicate
T1 construct: from tissue; host or cells: male Sprague Dawley rat brain, total homogenate
T1 sequence (P97612 1-579): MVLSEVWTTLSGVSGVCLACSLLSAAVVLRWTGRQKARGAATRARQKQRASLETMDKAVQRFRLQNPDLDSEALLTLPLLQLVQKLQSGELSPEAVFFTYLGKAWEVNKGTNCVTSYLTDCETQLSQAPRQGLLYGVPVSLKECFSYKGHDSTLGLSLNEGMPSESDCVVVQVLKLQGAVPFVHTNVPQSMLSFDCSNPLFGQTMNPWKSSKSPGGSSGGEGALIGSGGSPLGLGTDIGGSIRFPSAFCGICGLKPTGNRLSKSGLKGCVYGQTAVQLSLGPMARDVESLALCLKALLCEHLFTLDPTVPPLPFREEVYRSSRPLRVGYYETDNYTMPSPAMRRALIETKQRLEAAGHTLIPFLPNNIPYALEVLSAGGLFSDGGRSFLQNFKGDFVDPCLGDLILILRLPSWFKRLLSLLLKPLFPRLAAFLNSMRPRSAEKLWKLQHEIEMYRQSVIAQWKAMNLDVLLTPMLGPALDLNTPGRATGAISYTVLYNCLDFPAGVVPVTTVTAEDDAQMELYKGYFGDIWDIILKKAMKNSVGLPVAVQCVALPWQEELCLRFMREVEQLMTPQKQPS
Protocol: Rat Fatty Acid Amide Hydrolase (FAAH) Assay
Male Sprague Dawley rat brains were homogenized in a potter in 20 mM Tris-HCl pH7.4, 0.32M sucrose, protein concentration was measured and samples aliquot stored at −80° C. until use.
FAAH activity was measured using 50 μg of total rat brain homogenate pre-incubated for 10 minutes at 37° C. in 445.5 μL of assay buffer (50 mM Tris-HCl pH7.4, 0.05% Fatty acid-free BSA) with 4.5 μL of inhibitor at appropriate concentration in DMSO, or DMSO alone to measure FAAH total activity. The blank (no activity sample) was prepared with 445.5 μL of assay buffer and 4.5 μL of DMSO without the 50 μg of total rat brain homogenate.
After 10 minutes of pre-incubation, the reaction was started by the addition of 50 μL of substrate for 30 min at 37° C. The substrate is prepared in assay buffer in order to achieve the final concentration of 1 μM Arachidonoyl-ethanolamide (N.90050, Cayman Chemical) and 0.6 nM Anandamide [ethanolamine-1-^3H] (American Radiolabeled Chemicals Inc., ART.0626, 1 mCi/ml, specific activity 60 Ci/mmol).
The reaction was stopped by with the addition of cold 1:1 CHCl3/Methanol. After 10 minutes of centrifugation (845×g at 4° C.) 600 μL of the aqueous phase was transferred into scintillation vials previously filled with 3 mL of scintillation fluid (ULTIMA GOLD, Cat. 6013329, Perkin Elmer Inc.).
Radioactivity was measured by liquid scintillation counting (Microbeta2 Lumijet, Perkin Elmer Inc.).
(§1) EC50 or IC50 values (concentrations causing half-maximal response or inhibition of control agonist response) were determined by non-linear regression analysis of the Log [concentration]/response curves generated with mean replicate values using a four parameter Hill equation curve fitting with GraphPad Prism 5 (GraphPad Software Inc., CA—USA).

[2] = target: T2, human-D3R (Homo sapiens, UniProt P35462); test: D3 Dopamine Receptor (D3dR) cellular assay, cAMP HTRF functional assay in human-D3R expressing CHO cells; format: cell-based
T2 construct: expressed in transfected cells; host or cells: CHO cell line stably transfected with human D3R
T2 sequence (P35462 whole entry): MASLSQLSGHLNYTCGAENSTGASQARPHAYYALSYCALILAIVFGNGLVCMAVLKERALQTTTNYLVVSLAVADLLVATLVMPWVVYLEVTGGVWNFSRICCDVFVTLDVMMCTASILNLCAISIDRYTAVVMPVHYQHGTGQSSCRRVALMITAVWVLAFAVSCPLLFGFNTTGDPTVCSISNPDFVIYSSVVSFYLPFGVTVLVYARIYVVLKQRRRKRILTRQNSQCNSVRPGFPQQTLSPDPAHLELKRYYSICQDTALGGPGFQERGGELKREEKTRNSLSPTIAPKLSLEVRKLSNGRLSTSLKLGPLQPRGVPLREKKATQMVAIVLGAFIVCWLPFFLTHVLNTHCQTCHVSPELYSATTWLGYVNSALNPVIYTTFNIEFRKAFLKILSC
Protocol: D3 Dopamine Receptor (D3dR) Cellular Assay
Activity on D3R was tested with a cAMP functional assay on a stably transfected human-D3R expressing CHO cell line. On the day of the assay performance the cells were washed twice with PBS (w/o calcium and magnesium) and dislodged with a cell scraper, transferred to PBS, centrifuged and re-suspended in HBSS (w/o calcium and magnesium), supplemented with 1 g/L glucose and […] IBMX. The cell suspension was seeded on a 384 well plate (Greiner) and the assay was performed by adding compounds either test compounds alone (for agonist activity), or with test compound after a pre-incubation with 10 nM Dopamine as a stimulant (for antagonistic activity). After incubation (30 min at RT) the cell stimulation was stopped by adding the detecting reagents (cAMP-XL665 and anti-cAMP cryptate) diluted in lysis buffer. The signal was quantified by Homogenous Time-Resolved Fluorescence (HTRF) on a Perkin Elmer Envision plate reader after one hour of incubation at RT.
as §1

[3] = target: T3, human FAAH-1 (Homo sapiens, UniProt O00519); test: Human recombinant Fatty Acid Amide Hydrolase-1 (FAAH-1) fluorescent assay, Hek293-hFAAH-1 membranes; format: biochemical; conditions: 3 separate experiments, each in triplicate
T3 construct: expressed in transfected cells; host or cells: Hek293 cells stably transfected with human FAAH-1; membrane preparation
T3 sequence (O00519 1-579): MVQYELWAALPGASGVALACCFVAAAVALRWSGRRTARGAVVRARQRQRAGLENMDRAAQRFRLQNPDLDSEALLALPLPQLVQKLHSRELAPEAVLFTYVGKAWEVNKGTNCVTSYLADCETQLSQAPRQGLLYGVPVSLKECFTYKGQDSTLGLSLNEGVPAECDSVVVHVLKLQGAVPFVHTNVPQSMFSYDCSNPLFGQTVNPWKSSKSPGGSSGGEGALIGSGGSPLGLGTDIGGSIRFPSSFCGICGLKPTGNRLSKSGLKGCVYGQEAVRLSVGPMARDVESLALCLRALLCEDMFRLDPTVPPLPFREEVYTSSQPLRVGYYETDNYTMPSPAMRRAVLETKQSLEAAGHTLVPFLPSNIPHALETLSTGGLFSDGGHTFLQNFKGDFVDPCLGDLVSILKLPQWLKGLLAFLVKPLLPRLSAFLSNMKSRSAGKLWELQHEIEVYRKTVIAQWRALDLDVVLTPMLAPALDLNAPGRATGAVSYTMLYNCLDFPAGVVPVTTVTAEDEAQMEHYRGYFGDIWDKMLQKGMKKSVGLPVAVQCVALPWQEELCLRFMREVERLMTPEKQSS
Protocol: Human Recombinant Fatty Acid Amide Hydrolase-1 (FAAH-1) Fluorescent Assay
Hek293 cells stably transfected with human FAAH-1 were maintained in DMEM containing 10% FBS, 1% pen/strep and 500 μg/mL G418 to maintain selective pressure. Cells were scraped off with cold PBS1× pH7.4 from plates and collected by centrifugation (500 g, 10 minutes, 4° C.); cells pellets were re-suspended in homogenizing buffer (20 mM Tris-HCl pH7.4, 0.32M sucrose), disrupted by sonication (10 pulses, 5 times) and centrifuged at 800×g for 15 minutes at 4° C.; the resultant supernatants collected were then centrifuged at 105,000×g for 1 hr at 4° C. and membranes pellets were re-suspended in PBS1× pH7.4.
Protein concentration was measured and samples aliquot stored at −80° C. until use.
The blank (no activity) was prepared using 180 μL of assay buffer without Hek293-hFAAH-1 membrane preparation and 10 μL of DMSO.
After 50 minutes of pre-incubation of compounds with the enzyme at 37° C., the reaction was started by the addition of 10 μL of substrate (AMC Arachidonyl Amide, N.10005098, Cayman Chemical) for 30 min at 37° C. The substrate is prepared in Ethanol in order to achieve the final concentration of 2 μM.
Fluorescence was detected with Tecan Infinite M200 nanoquant (Tecan Group Ltd.) at an excitation wavelength 350 nm and an emission wavelength 460 nm.
as §1

Row | Structure (SMILES) | IC50 [1] [nM] | Emax ([2]; CHO, 0.5 h, % of 300 nM Dopamine response, read-out: Dopamine D3 % of Agonist Activity) [%] | EC50 ([2]; cAMP assay, CHO human-D3R, one experiment in duplicate) [nM] | IC50 [3] [nM]
1 | NC(=O)c1cccc(-c2ccc(OC(=O)NCCCCN3CCN(c4cccc(Cl)c4Cl)CC3)cc2)c1 [Example 7, [4-(3-carbamoylphenyl)phenyl] N-[4-[4-(2,3-dichlorophenyl)piperazin-1-yl]butyl]carbamate] | 0.72 | – | – | –
2 | NC(=O)c1cccc(-c2ccc(OC(=O)NCCCN3CCN(c4cccc(Cl)c4Cl)CC3)cc2)c1 [Example 6, [4-(3-carbamoylphenyl)phenyl] N-[3-[4-(2,3-dichlorophenyl)piperazin-1-yl]propyl]carbamate] | 1.5 | – | – | –
3 | COc1ccccc1N1CCN(CCCCNC(=O)Oc2cccc(-c3cccc(C(N)=O)c3)c2)CC1 [Example 1, [3-(3-carbamoylphenyl)phenyl] N-[4-[4-(2-methoxyphenyl)piperazin-1-yl]butyl] carbamate] | 0.94 | – | – | –
4 | NC(=O)c1cccc(-c2cccc(OC(=O)NCCCN3CCN(c4ccccc4)CC3)c2)c1 [Example 4, [3-(3-carbamoylphenyl)phenyl] N-[3-(4-phenylpiperazin-1-yl)propyl]carbamate] | 0.32 | – | – | –
5 | NC(=O)c1cccc(-c2cccc(OC(=O)NCCCN3CCN(c4cccc(Cl)c4Cl)CC3)c2)c1 [Example 3, [3-(3-carbamoylphenyl)phenyl] N-[3-[4-(2,3-dichlorophenyl)piperazin-1-yl]propyl]carbamate] | 0.11 | – | – | –
6 | O=C(NCCCN1CCN(c2ccccc2)CC1)Oc1cccc(-c2ccccc2)c1 [Example 5, (3-phenylphenyl) N-[3-(4-phenylpiperazin-1-yl)propyl]carbamate] | 3 | 89.7 | 13 | 3.4
7 | NC(=O)c1cccc(-c2cccc(OC(=O)NCCCCN3CCN(c4cccc(Cl)c4Cl)CC3)c2)c1 [Example 2, [3-(3-carbamoylphenyl)phenyl] N-[4-[4-(2,3-dichlorophenyl)piperazin-1-yl]butyl] carbamate] | 0.3 | – | – | –
